Test system: X181 H1N1 Cal, X187 H3N2 Perth and B/Brisbane
Format: in vivo, Balb/c mice
Conditions: adjuvant dose 100 μg, 20 μl

Structure (SMILES): Cc1ccc2c(c1)nc(N)c1ncc(CCc3ccc(OCCOCCOCCC(F)(F)P(=O)(O)O)cc3C)cc12 [T1b]
- immune response compared to both intradermal or intramuscular immunization using antigen alone: significantly improved immune response
